Reference: ChEMBL document CHEMBL5032530, “Discovery of Benzocyclic Sulfone Derivatives as Potent CXCR2 Antagonists for Cancer Immunotherapy” (J Med Chem, 2021)
Calls of active or inactive are those of the source. The rule behind the calls is not given here.

Assays:
[1] = target: C-C chemokine receptor type 6 (Homo sapiens) (UniProt P51684); assay: Agonist activity against CCR6 (unknown origin) assessed as induction of beta-arrestin 2 recruitment at 10 microM by beta arrestin assay relative to control; format: functional
Sequence of C-C chemokine receptor type 6 (Homo sapiens) (P51684 whole entry): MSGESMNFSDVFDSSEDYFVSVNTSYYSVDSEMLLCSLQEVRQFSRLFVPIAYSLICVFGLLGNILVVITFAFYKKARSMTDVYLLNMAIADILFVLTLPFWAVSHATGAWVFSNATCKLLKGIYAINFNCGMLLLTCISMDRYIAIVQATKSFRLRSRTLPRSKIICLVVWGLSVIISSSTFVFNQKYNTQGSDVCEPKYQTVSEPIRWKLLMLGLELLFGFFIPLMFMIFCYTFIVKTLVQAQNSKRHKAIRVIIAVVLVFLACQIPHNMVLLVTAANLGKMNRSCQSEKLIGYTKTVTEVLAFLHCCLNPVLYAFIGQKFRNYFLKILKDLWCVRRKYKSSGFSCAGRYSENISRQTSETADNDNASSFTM

[2] = target: C-X-C chemokine receptor type 5 (Homo sapiens) (UniProt P32302); assay: Antagonist activity against CXCR5 (unknown origin) assessed as inhibition of beta-arrestin 2 recruitment at 10 microM by beta arrestin assay relative to control; format: functional; set-up: scale not given: the % may be the effect or the level left
Sequence of C-X-C chemokine receptor type 5 (Homo sapiens) (P32302 whole entry): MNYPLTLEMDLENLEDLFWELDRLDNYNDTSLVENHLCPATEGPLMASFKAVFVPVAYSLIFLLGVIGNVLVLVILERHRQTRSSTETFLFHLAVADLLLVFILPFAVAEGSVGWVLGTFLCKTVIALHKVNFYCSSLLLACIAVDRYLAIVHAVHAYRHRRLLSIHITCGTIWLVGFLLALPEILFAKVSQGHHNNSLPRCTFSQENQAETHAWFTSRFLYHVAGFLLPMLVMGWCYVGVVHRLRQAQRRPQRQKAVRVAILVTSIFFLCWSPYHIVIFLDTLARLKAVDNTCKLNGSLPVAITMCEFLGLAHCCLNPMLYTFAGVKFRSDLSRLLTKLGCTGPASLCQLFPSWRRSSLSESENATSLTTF

[3] = system: Panc02; assay: Antitumour activity against mouse Panc02 cells xenografted in mouse assessed as change in CD11b expressing immune cells infiltration into tumor tissue using LY6G antibody at 30 mg/kg, po bid measured after 15 days by flow cytometry analysis (reference value: 29.7%); format: functional; settings: time 15 day
[4] = target: C-C chemokine receptor type 10 (Homo sapiens) (UniProt P46092); assay: Agonist activity against CCR10 (unknown origin) assessed as induction of beta-arrestin 2 recruitment at 10 microM by beta arrestin assay relative to control; format: functional
Sequence of C-C chemokine receptor type 10 (Homo sapiens) (P46092 whole entry): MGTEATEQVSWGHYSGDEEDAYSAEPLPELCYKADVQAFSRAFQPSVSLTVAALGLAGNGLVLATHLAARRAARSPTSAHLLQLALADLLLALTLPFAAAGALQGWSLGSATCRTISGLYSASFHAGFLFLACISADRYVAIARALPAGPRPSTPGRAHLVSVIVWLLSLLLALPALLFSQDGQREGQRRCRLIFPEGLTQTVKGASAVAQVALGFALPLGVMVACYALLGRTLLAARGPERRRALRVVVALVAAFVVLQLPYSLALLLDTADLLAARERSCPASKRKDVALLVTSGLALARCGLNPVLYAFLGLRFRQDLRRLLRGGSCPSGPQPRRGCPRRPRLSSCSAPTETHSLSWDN

[5] = target: CX3C chemokine receptor 1 (Homo sapiens) (UniProt P49238); assay: Antagonist activity against CX3CR1 (unknown origin) assessed as inhibition of beta-arrestin 2 recruitment at 10 microM by beta arrestin assay relative to control; format: functional; set-up: scale not given: the % may be the effect or the level left
Sequence of CX3C chemokine receptor 1 (Homo sapiens) (P49238 whole entry): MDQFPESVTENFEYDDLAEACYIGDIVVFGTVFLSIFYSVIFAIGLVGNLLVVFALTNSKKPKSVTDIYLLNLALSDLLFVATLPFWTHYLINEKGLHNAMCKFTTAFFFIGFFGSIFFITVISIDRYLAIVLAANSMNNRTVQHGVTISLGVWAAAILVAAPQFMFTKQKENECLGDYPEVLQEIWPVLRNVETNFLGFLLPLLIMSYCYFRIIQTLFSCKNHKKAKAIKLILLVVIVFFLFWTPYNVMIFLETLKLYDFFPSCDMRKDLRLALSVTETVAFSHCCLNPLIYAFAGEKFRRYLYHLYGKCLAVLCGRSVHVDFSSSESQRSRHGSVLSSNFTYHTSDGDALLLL

[6] = system: SW1990; assay: Cytotoxicity against human SW1990 cells assessed as reduction in cell viability measured after 72 hrs by CCK8 assay; format: cell-based; settings: SW1990, 72 h
[7] = target: C-C chemokine receptor type 10 (Homo sapiens) (UniProt P46092); assay: Antagonist activity against CCR10 (unknown origin) assessed as inhibition of beta-arrestin 2 recruitment at 10 microM by beta arrestin assay relative to control; format: functional; set-up: scale not given: the % may be the effect or the level left
[8] = system: Panc02; assay: Antitumour activity against mouse Panc02 cells xenografted in mouse assessed as change in CD11b expressing immune cells infiltration into tumor tissue using LY6C antibody at 30 mg/kg, po bid measured after 15 days by flow cytometry analysis (reference value: 20.5%); format: functional; settings: time 15 day
[9] = target: C-C chemokine receptor type 7 (Homo sapiens) (UniProt P32248); assay: Agonist activity against CCR7 (unknown origin) assessed as induction of beta-arrestin 2 recruitment at 10 microM by beta arrestin assay relative to control; format: functional
[10] = target: C-C chemokine receptor type 8 (Homo sapiens) (UniProt P51685); assay: Antagonist activity against CCR8 (unknown origin) assessed as inhibition of beta-arrestin 2 recruitment at 10 microM by beta arrestin assay relative to control; format: functional; set-up: scale not given: the % may be the effect or the level left
Sequence of C-C chemokine receptor type 8 (Homo sapiens) (P51685 whole entry): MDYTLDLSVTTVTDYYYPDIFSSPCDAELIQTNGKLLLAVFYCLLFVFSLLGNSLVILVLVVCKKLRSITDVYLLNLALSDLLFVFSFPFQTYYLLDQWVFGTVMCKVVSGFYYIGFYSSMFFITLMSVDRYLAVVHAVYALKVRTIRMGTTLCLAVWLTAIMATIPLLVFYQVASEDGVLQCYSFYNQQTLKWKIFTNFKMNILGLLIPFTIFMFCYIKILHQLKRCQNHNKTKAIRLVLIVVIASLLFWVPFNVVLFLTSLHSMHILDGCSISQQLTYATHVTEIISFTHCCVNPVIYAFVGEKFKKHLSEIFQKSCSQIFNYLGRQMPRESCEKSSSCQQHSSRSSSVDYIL

[11] = target: C-X-C chemokine receptor type 2 (Homo sapiens) (UniProt P25025); assay: Antagonist activity against CXCR2 (unknown origin) assessed as inhibition of beta-arrestin 2 recruitment at 10 microM by beta arrestin assay relative to control; format: functional; set-up: scale not given: the % may be the effect or the level left; settings: filed as antagonist
Sequence of C-X-C chemokine receptor type 2 (Homo sapiens) (P25025 whole entry): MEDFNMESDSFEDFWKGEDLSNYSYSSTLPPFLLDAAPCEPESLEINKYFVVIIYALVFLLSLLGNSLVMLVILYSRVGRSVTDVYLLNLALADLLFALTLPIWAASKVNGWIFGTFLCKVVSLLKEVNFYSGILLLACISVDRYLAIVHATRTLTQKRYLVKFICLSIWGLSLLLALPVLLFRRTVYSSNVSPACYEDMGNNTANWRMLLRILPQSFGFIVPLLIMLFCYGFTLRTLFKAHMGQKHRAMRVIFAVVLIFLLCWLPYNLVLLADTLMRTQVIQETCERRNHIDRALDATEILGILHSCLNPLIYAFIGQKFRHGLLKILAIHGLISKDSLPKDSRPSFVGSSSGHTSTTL

[12] = system: Panc02; assay: Antitumour activity against mouse Panc02 cells xenografted in mouse assessed as reduction in infiltration of neutrophils into tumor tissue at 30 mg/kg, po bid measured after 15 days by immunohistochemical analysis; format: functional, organism-based; settings: time 15.0 day
[13] = target: Atypical chemokine receptor 3 (Homo sapiens) (UniProt P25106); assay: Antagonist activity against CXCR7 (unknown origin) assessed as inhibition of beta-arrestin 2 recruitment at 10 microM by beta arrestin assay relative to control; format: functional; set-up: scale not given: the % may be the effect or the level left
Sequence of Atypical chemokine receptor 3 (Homo sapiens) (P25106 whole entry): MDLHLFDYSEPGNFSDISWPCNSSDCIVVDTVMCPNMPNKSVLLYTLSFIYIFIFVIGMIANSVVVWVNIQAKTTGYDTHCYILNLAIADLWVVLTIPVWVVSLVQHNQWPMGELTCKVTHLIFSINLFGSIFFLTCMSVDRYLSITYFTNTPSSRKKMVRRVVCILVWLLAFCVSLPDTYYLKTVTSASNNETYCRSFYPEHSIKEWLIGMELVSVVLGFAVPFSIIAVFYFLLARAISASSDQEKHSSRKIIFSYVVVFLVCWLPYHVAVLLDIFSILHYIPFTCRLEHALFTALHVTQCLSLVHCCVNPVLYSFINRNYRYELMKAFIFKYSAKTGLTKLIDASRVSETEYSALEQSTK

[14] = system: Panc02; assay: Antitumour activity against mouse Panc02 cells xenografted in mouse assessed as change in Gr1 expressing immune cells infiltration into tumor tissue at 30 mg/kg, po bid measured after 15 days by flow cytometry analysis (reference value: 27.4%); format: functional; settings: time 15 day
[15] = Half life in ICR mouse at 30 mg/kg, po measured upto 48 hrs; format: ADME, organism-based; settings: ICR, in vivo
[16] = target: C-X-C chemokine receptor type 2 (Homo sapiens) (UniProt P25025); assay: Agonist activity against CXCR2 (unknown origin) assessed as induction of beta-arrestin 2 recruitment at 10 microM by beta arrestin assay relative to control; format: functional
[17] = target: Chemerin-like receptor 1 (Homo sapiens) (UniProt Q99788); assay: Antagonist activity against CMKLR1 (unknown origin) assessed as inhibition of beta-arrestin 2 recruitment at 10 microM by beta arrestin assay relative to control; format: functional; set-up: scale not given: the % may be the effect or the level left
Sequence of Chemerin-like receptor 1 (Homo sapiens) (Q99788 whole entry): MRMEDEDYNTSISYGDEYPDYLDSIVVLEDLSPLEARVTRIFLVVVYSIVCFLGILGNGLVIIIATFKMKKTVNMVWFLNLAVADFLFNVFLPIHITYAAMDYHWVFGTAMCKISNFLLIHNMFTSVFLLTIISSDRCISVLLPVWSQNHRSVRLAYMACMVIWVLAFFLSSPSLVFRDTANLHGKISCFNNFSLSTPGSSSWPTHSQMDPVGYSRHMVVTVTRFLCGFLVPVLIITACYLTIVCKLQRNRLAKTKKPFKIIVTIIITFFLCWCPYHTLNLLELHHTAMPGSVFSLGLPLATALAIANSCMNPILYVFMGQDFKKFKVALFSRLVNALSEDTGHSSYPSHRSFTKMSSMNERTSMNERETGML

[18] = system: Panc02; assay: Antitumour activity against mouse Panc02 cells xenografted in mouse assessed as reduction in infiltration of granulocytic MDSCs into tumor tissue at 3 mg/kg, po bid measured after 15 days by flow cytometry analysis; format: functional, organism-based; settings: time 15.0 day
[19] = target: C-C chemokine receptor type 4 (Homo sapiens) (UniProt P51679); assay: Agonist activity against CCR4 (unknown origin) assessed as induction of beta-arrestin 2 recruitment at 10 microM by beta arrestin assay relative to control; format: functional
Sequence of C-C chemokine receptor type 4 (Homo sapiens) (P51679 whole entry): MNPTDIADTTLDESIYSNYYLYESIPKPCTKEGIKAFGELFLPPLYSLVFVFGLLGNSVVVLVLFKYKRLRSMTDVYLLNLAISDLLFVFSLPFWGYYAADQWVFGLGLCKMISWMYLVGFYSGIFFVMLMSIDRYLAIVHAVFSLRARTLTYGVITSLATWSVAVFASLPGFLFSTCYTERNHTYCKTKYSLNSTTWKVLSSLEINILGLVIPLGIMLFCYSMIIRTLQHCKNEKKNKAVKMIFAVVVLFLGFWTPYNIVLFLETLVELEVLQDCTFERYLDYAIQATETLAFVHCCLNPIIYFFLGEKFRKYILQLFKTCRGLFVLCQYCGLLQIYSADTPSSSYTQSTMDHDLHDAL

[20] = target: C-X-C chemokine receptor type 4 (Homo sapiens) (UniProt P61073); assay: Agonist activity against CXCR4 (unknown origin) assessed as induction of beta-arrestin 2 recruitment at 10 microM by beta arrestin assay relative to control; format: functional
Sequence of C-X-C chemokine receptor type 4 (Homo sapiens) (P61073 whole entry): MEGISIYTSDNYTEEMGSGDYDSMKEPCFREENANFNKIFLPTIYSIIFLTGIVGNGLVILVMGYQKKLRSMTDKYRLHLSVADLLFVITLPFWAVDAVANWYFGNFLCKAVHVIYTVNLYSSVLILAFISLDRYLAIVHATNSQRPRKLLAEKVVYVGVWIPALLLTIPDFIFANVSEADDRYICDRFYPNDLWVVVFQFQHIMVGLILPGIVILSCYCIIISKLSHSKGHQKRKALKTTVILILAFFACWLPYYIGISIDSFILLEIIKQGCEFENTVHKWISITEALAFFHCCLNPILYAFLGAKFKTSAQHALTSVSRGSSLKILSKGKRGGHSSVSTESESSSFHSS

[21] = target: C-C chemokine receptor type 2 (Homo sapiens) (UniProt P41597); assay: Antagonist activity against CCR2 (unknown origin) assessed as inhibition of beta-arrestin 2 recruitment at 10 microM by beta arrestin assay relative to control; format: functional; set-up: scale not given: the % may be the effect or the level left
Sequence of C-C chemokine receptor type 2 (Homo sapiens) (P41597 whole entry, looked up): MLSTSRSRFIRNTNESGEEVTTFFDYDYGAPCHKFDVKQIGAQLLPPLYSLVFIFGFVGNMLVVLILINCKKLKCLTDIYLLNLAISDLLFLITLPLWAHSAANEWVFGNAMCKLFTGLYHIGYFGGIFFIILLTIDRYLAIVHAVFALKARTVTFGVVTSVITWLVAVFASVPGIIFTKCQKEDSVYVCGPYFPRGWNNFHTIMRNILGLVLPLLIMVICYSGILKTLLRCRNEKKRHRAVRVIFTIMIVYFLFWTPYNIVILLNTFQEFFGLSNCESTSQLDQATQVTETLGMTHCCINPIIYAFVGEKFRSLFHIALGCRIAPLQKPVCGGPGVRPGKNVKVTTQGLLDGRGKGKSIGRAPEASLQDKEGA

[22] = system: Panc02; assay: Antitumour activity against mouse Panc02 cells xenografted in mouse assessed as reduction in infiltration of neutrophils into tumor tissue at 3 mg/kg, po bid measured after 15 days by flow cytometry analysis; format: functional, organism-based; settings: time 15.0 day
[23] = system: Panc02; assay: Antitumour activity against mouse Panc02 cells xenografted in mouse assessed as change in CD11b expressing immune cells infiltration into tumor tissue using LY6C antibody at 10 mg/kg, po bid measured after 15 days by flow cytometry analysis (reference value: 20.5%); format: functional; settings: time 15 day
[24] = system: BXPC-3; assay: Cytotoxicity against human BxPC3 cells assessed as reduction in cell viability measured after 72 hrs by CCK8 assay; format: cell-based; settings: BXPC-3, 72 h
[25] = target: C-X-C chemokine receptor type 6 (Homo sapiens) (UniProt O00574); assay: Antagonist activity against CXCR6 (unknown origin) assessed as inhibition of beta-arrestin 2 recruitment at 10 microM by beta arrestin assay relative to control; format: functional; set-up: scale not given: the % may be the effect or the level left
[26] = Apparent volume of distribution in ICR mouse at 30 mg/kg, po measured upto 48 hrs; format: ADME, organism-based; settings: in vivo
[27] = target: C-X-C chemokine receptor type 1 (Homo sapiens) (UniProt P25024); assay: Antagonist activity against CXCR1 (unknown origin) assessed as inhibition of beta-arrestin 2 recruitment at 10 microM by beta arrestin assay relative to control; format: functional; set-up: scale not given: the % may be the effect or the level left
Sequence of C-X-C chemokine receptor type 1 (Homo sapiens) (P25024 whole entry): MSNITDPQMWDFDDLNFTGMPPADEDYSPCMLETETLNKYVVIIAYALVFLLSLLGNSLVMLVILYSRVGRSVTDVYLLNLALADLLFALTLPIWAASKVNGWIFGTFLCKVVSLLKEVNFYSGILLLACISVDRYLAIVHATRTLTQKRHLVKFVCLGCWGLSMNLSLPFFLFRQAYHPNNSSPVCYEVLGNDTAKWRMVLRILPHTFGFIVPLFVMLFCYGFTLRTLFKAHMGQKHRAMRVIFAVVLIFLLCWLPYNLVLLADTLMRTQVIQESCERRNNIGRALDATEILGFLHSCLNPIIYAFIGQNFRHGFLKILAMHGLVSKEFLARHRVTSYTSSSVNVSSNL

[28] = target: C-C chemokine receptor type 8 (Homo sapiens) (UniProt P51685); assay: Agonist activity against CCR8 (unknown origin) assessed as induction of beta-arrestin 2 recruitment at 10 microM by beta arrestin assay relative to control; format: functional
[29] = target: C-C chemokine receptor type 9 (Homo sapiens) (UniProt P51686); assay: Agonist activity against CCR9 (unknown origin) assessed as induction of beta-arrestin 2 recruitment at 10 microM by beta arrestin assay relative to control; format: functional
[30] = Tmax in ICR mouse at 3 mg/kg, iv measured upto 48 hrs; format: ADME, organism-based; settings: in vivo
[31] = system: Panc02; assay: Antitumour activity against mouse Panc02 cells xenografted in mouse assessed as reduction in infiltration of granulocytic MDSCs into tumor tissue at 30 mg/kg, po bid measured after 15 days by immunohistochemical analysis; format: functional, organism-based; settings: time 15.0 day
[32] = target: C-C chemokine receptor type 6 (Homo sapiens) (UniProt P51684); assay: Antagonist activity against CCR6 (unknown origin) assessed as inhibition of beta-arrestin 2 recruitment at 10 microM by beta arrestin assay relative to control; format: functional; set-up: scale not given: the % may be the effect or the level left
[33] = target: C-X-C chemokine receptor type 3 (Homo sapiens) (UniProt P49682); assay: Agonist activity against CXCR3 (unknown origin) assessed as induction of beta-arrestin 2 recruitment at 10 microM by beta arrestin assay relative to control; format: functional
Sequence of C-X-C chemokine receptor type 3 (Homo sapiens) (P49682 whole entry): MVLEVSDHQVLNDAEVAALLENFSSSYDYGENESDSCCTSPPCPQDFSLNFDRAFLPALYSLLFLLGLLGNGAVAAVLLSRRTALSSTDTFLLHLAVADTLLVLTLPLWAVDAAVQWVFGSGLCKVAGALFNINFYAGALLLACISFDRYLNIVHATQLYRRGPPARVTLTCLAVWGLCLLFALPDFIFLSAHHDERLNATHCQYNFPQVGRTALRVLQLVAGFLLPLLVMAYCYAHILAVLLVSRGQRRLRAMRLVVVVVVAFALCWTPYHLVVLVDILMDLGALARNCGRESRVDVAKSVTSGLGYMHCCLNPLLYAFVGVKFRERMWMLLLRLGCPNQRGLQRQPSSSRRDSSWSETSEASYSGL

For Cc1c(F)cccc1NC(=O)Nc1ccc2c(c1O)S(=O)(=O)CCC2, the Activity [1] was less than 10%, the Activity [2] was 11% and the Activity [3] was 7.6%. It also gave an Activity [4] of less than 10%, an Activity [5] of less than 10% and an IC50 [6] greater than 10 µM. It also gave an Activity [7] of less than 10%, an Activity [8] of 15.3% and an Activity [9] of less than 10%. For the same compound, the Activity [10] was less than 10%, the Activity [11] was 109% and the Activity [12] was “Active”. For the same compound, the Activity [13] was 15%, the Activity [14] was 7.5% and the half-life [15] was 4.94 h. For the same compound, the Activity [16] was less than 10%, the Activity [17] was less than 10% and the Activity [18] was “Active”. For the same compound, the Activity [19] was less than 10%, the Activity [20] was less than 10% and the Activity [21] was 17%. The Activity [22] was “Active”, the Activity [23] was 15.6% and the IC50 [24] was greater than 10 µM. For the same compound, the Activity [25] was 17%, the Vz [26] was 939.87 L/kg and the Activity [27] was 33%. The Activity [28] was less than 10%, the Activity [29] was less than 10% and the Tmax [30] was 1.8 min. For the same compound, the Activity [31] was “Active”, the Activity [32] was less than 10% and the Activity [33] was less than 10%.
